Results: patent publication US6858230B1, “Process for producing medicinal composition of basic hydrophobic medicinal compound” (Shionogi & Co., Ltd., priority 1999, dated 2005)

How the values were obtained:
[1] = Dispersibility of active ingredient in acidic suspension with various kinds of acids; type: physicochemical; conditions: at preparation
Method: 50 g of PVP K30 was dissolved to 800 g of purified water. These aqueous solution were acidified by DL-Malic acid. The compound (I-1) was suspended in the acidic solution under stirring. The suspension was neutralized with 115 g of 13% NaOH aqueous solution to give a suspension. In place of malic acid in Example 3-1, citric acid was used. In place of malic acid in Example 3-1, phosphoric acid was used. No acid was used. Dispersibility of the compound (I-1) in an acidic suspension obtained in Example 3-1 to 3-4 including various kinds of acids was examined. Dispersibility was observed by the naked eyes at the time of preparation of an suspension.

[2] = Dispersibility of a basic compound in a suspension; type: physicochemical; conditions: suspension with DL-malic acid, neutralized with NaOH (Examples 3-1, 4, 5)
Method: 50 g of PVP K30 was dissolved to 800 g of purified water. These aqueous solution were acidified by DL-Malic acid. The compound (I-1) was suspended in the acidic solution under stirring. The suspension was neutralized with 115 g of 13% NaOH aqueous solution to give a suspension. In place of the compound (I-1) in Example 3-1, pindolol was used. In place of the compound (I-1) in Example 3-1, noscapine was used. Dispersibility of the compound (I-1) in an acidic suspension obtained in Example 3-1 to 3-4 including various kinds of acids was examined. Dispersibility was observed by the naked eyes at the time of preparation of an suspension. Dispersibility of active ingredient in the suspension obtained in Example 3-1, 4 and 5 was examined in accordance with Experiment 4.

In the case of CC(C)c1nc(COC(N)=O)n(Cc2ccncc2)c1Sc1cc(Cl)cc(Cl)c1 [Compound (I-1), 5-(3,5-dichlorophenyl)thio-4-isopropyl-1-(4-pyridyl)methyl-1H-imidazol-2-ylmethyl carbamate], the “Dispersibility of drug substance” value ([1]; suspension with citric acid (Example 3-2)) is reported as “Good”, the “Dispersibility of drug substance” value ([1]; suspension with malic acid (Example 3-1)) is reported as “Good” and the “Dispersibility of drug substance” value ([1]; suspension with no acid (Reference Example 3-4)) is reported as “Formation”. For the same compound, the “Dispersibility of drug substance” value ([1]; suspension with phosphoric acid (Example 3-3)) was “Good” and the “Dispersibility of drug substance” value [2] was “Good”.

With COc1ccc2c(c1OC)C(=O)O[C@@H]2[C@H]1c2c(cc3c(c2OC)OCO3)CCN1C [Noscapine, noscapine] the “Dispersibility of drug substance” value [2] was “Good”.

For CC(C)NCC(O)COc1cccc2[nH]ccc12 (stereo not shown) [Pindolol, pindolol], the “Dispersibility of drug substance” value [2] was “Good”.
